Measured values taken from patent publication US20120095036A1, “NOVEL SUBSTITUTED INDAZOLE AND AZA-INDAZOLE DERIVATIVES AS GAMMA SECRETASE MODULATORS” (priority 2009, published 2012).
pIC50: −log10 of the molar value.

How the values were obtained:
Aβtotal [1] = experiment: Method 1: Aβtotal sandwich ELISA on media of SKNBE2 cells carrying APP 695 wild type; format: cell-based; settings: Homo sapiens, SKNBE2 cells APP 695 wild type, 18 hours
Method in brief: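 SKNBE2 cells expressing wild-type APP695 treated with compound for 18 h in Ultraculture; secreted Aβtotal measured by 6E10-capture/biotinylated 4G8 sandwich ELISA with fluorogenic peroxidase read-out. IC50 from 4-parameter fit, top/bottom fixed at 100/0, Hill slope 1; toxicity checked by WST-1.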

[2] = test system: Notch-processing activity of the γ-secretase-complex; experiment: Notch cell-free assay (NICD production from recombinant Notch substrate N99); format: biochemical, mouse; settings: 1 nM of a test compound, 37° C. for 6 to 22 h, western blotting
Method: The Notch transmembrane domain is cleaved by gamma secretase to release Notch Intracellular C-terminal Domain (NICD).
To monitor the effect of compounds on NICD production, a recombinant Notch substrate (N99) was prepared. The Notch substrate, comprised of mouse Notch fragment (V1711-E1809), an N-terminal methionine and a C-terminal FLAG sequence ([…]), was expressed in E. coli and purified on a column containing an anti-FLAG M2 affinity matrix.
A typical Notch cell-free assay consisted of 0.3-0.5 nM Notch substrate, an enriched preparation of gamma secretase and 1 nM of a test compound (compound 45 of the present invention). Controls included a gamma secretase inhibitor (GSI), such as (2S)-N-[2-(3,5-difluorophenyl)acetyl]-L-alanyl-2-phenyl-glycine 1,1-dimethylethyl ester (DAPT) or (2S)-2-hydroxy-3-methyl-N-[(1S)-1-methyl-2-oxo-2-[[(1S)-2,3,4,5-tetrahydro-3-methyl-2-oxo-1H-3-benzazepin-1-yl]amino]ethyl]-butanamide (Semagacestat), and DMSO, the final concentration of DMSO being 1%. Recombinant Notch substrate was pre-treated with 17 μM DTT (1,4-dithiothreitol) and 0.02% SDS (Sodium Dodecyl Sulfate) and heated at 65° C. for 10 min. The mixture of substrate, gamma secretase and compound/DMSO was incubated at 37° C. for 6 to 22 hours (h). Six-hour incubation was sufficient to produce the maximal amount of NICD and the cleaved product remained stable for an additional 16 h. Reaction products were processed for SDS PAGE (Sodium Dodecyl Sulfate—Poly Acrylamide Gel Electrophoresis) and western blotting. Blots were probed with an anti-Flag M2 antibody, followed by LI-COR infrared secondary antibody, and analyzed with the Odyssey Infrared Imaging System (LI-COR® Biosciences).

Aβ42 [3] = experiment: Method 2: Aβ42 Alphalisa on supernatant of SKNBE2 cells carrying APP 695 wild type; format: cell-based; settings: Homo sapiens, SKNBE2 cells APP 695 wild type, overnight
Method in brief: (§1)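 SKNBE2 cells expressing wild-type APP695 (10^4/well) were incubated overnight at 37 °C with compound at several concentrations. Secreted Aβ42 (C-terminal/N-terminal antibody pair) and Aβtotal (N-terminal/4G8 pair) were measured by AlphaLISA in the supernatant. IC50 values came from 4-parameter fits of percent of untreated control.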

Aβtotal [4] = experiment: Method 2: Aβtotal Alphalisa on supernatant of SKNBE2 cells carrying APP 695 wild type; format: cell-based; settings: Homo sapiens, SKNBE2 cells APP 695 wild type, overnight
Method in brief: as §1

Aβ42 [5] = experiment: Method 1: Aβ42 sandwich ELISA on media of SKNBE2 cells carrying APP 695 wild type (γ-secretase-modulating activity); format: cell-based; settings: Homo sapiens, SKNBE2 cells APP 695 wild type, 18 hours
Method in brief: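 SKNBE2 cells expressing wild-type APP695 exposed to compounds for 18 h in Ultraculture with 1% glutamine. Secreted Aβ42 in media quantified by sandwich ELISA (C-terminal capture, biotinylated 3D6 detection, TMB, 450 nm). IC50 from 4-parameter fit, top/bottom fixed 100/0, Hill slope fixed 1; toxicity checked by WST-1.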

Aβ42 [6] = experiment: In vivo efficacy: Aβ42 lowering in brain (ELISA); set-up: species or system mouse; settings: brain soluble fraction; typical protocol: single oral dose, overnight fasted animals, after four hours
From the text: (§2) To determine whether acute administration of an Aβ42 lowering agent would reduce Aβ42 levels in vivo, non-transgenic rodents, e.g. mice or rats were used. Alternatively, two to three month old Tg2576 mice expressing APP695 containing the “Swedish” variant can be used or a transgenic mouse model developed by Dr. Fred Van Leuven (K.U.Leuven, Belgium) and co-workers, with neuron-specific expression of a clinical mutant of the human amyloid precursor protein [V717I] (Moechars et al., 1999 J. Biol. Chem. 274, 6483). Young transgenic mice have high levels of Aβ in the brain but no detectable Aβ deposition. At approximately 6-8 months of age, the transgenic mice start to display spontaneous, progressive accumulation of β-amyloid (A13) in the brain, eventually resulting in amyloid plaques within the subiculum, hippocampus and cortex. Animals treated with the Aβ42 lowering agent were examined and compared to those untreated or treated with vehicle and brain levels of soluble Aβ42 and total Aβ would be quantitated by standard techniques, for example, using ELISA. Treatment periods varied from hours to days and were adjusted based on the results of the Aβ42 lowering once a time course of onset of effect could be established.
(§3) A typical protocol for measuring Aβ42 lowering in vivo is shown but it is only one of many variations that could be used to optimize the levels of detectable Aβ. For example, Aβ42 lowering compounds were formulated in 20% of Captisol® (a sulfobutyl ether of β-cyclodextrin) in water or 20% hydroxypropyl β cyclodextrin. The Aβ42 lowering agents were administered as a single oral dose or by any acceptable route of administration to overnight fasted animals. After four hours, the animals were sacrificed and Aβ42 levels were analysed.
(§4) Blood was collected by decapitation and exsanguinations in EDTA-treated collection tubes. Blood was centrifuged at 1900 g for 10 minutes (min) at 4° C. and the plasma recovered and flash frozen for later analysis. The brain was removed from the cranium and hindbrain. The cerebellum was removed and the left and right hemisphere were separated. The left hemisphere was stored at −18° C. for quantitative analysis of test compound levels. The right hemisphere was rinsed with phosphate-buffered saline (PBS) buffer and immediately frozen on dry ice and stored at −80° C. until homogenization for biochemical assays.
(§5) Mouse brains were resuspended in 10 volumes of 0.4% DEA (diethylamine)/50 mM NaCl pH 10 (for non-transgenic animals) or 0.1% 3-[(3-cholamidopropyl)-dimethyl-ammonio]-1-propanesulfonate (CHAPS) in tris buffered saline (TBS) (for transgenic animals) containing protease inhibitors (Roche-11873580001 or 04693159001) per gram of tissue, e.g. for 0.158 g brain, add 1.58 ml of 0.4% DEA. All samples were sonicated for 30 sec on ice at 20% power output (pulse mode). Homogenates were centrifuged at 221.300×g for 50 min. The resulting high speed supernatants were then transferred to fresh tubes and were optionally further purified before the next step. A portion of the supernatant was neutralized with 10% 0.5 M Tris-HCl and this was used to quantify Aβtotal.
(§6) The obtained supernatants were purified with Water Oasis HLB reverse phase columns (Waters Corp., Milford, Mass.) to remove non-specific immunoreactive material from the brain lysates prior subsequent Aβ detection. Using a vacuum manifold, all solutions were passed through the columns at a rate of approximately 1 ml/min, so the vacuum pressure was adjusted accordingly throughout the procedure. Columns were preconditioned with 1 ml of 100% MeOH, before equilibration with 1 ml of H2O, Non-neutralized brain lysates were loaded onto the columns. The loaded samples were then washed twice with the first wash performed with 1 ml of 5% MeOH, and the second wash with 1 ml of 30% MeOH. Finally, the Aβ was eluted from the columns and into 100×30 mm glass tubes, with a solution of 90% MeOH with 2% NH4OH. […]

Aβtotal [7] = experiment: In vivo efficacy: Aβtotal in brain (ELISA); set-up: species or system mouse; settings: brain soluble fraction; typical protocol: single oral dose, overnight fasted animals, after four hours
From the text: as §2, §3, §4, §5, §6

Row | Compound | pIC50 (Aβtotal [1]) | effect on the Notch-processing activity of the γ-secretase-complex (production of NICD) [2] | pIC50 (Aβ42 [3]) | pIC50 (Aβtotal [4]) | pIC50 (Aβ42 [5]) | melting point [°C] | Aβ42 (% Ctrl) _Mean (Aβ42 [6]) [% Ctrl] | Aβtotal (% Ctrl) _Mean (Aβtotal [7]) [% Ctrl]
1 | COc1ccc(C)c(-n2nc3c(Nc4ccc(-c5cnc(C)o5)nc4)cccc3c2C)c1 [Compound 45, 2-(5-methoxy-2-methylphenyl)-3-methyl-N-[6-(2-methyl-5-oxazolyl)-3-pyridinyl]-2H-indazol-7-amine] | < 5.52 | did not show an effect | 7.74 | 5.17 | 7.64 | – | – | –
2 | COc1nc(Nc2cccc3cn(CC(F)(F)F)nc23)ccc1-n1cnc(C)c1 [Compound 54, N-[6-methoxy-5-(4-methyl-1H-imidazol-1-yl)-2-pyridinyl]-2-(2,2,2-trifluoroethyl)-2H-indazol-7-amine] | – | – | 7.18 | < 5.00 | – | 206 | 72 | 109
3 | C[C@H](NC(=O)Cc1cc(F)cc(F)c1)C(=O)NC(C(=O)OC(C)(C)C)c1ccccc1 (stereo partly drawn) [DAPT, (2S)-N-[2-(3,5-difluorophenyl)acetyl]-L-alanyl-2-phenyl-glycine 1,1-dimethylethyl ester] | – | blocked | – | – | – | – | – | –
4 | CC(C)[C@H](O)C(=O)N[C@@H](C)C(=O)N[C@@H]1C(=O)N(C)CCc2ccccc21 [Semagacestat, (2S)-2-hydroxy-3-methyl-N-[(1S)-1-methyl-2-oxo-2-[[(1S)-2,3,4,5-tetrahydro-3-methyl-2-oxo-1H-3-benzazepin-1-yl]amino]ethyl]-butanamide] | – | blocked | – | – | – | – | – | –
